Data: patent US11331299B2, “Medicinal use of serrulatane diterpenes” (The University of Sydney, priority 2016, dated 2022)
pEC50, pIC50: −log10 of the molar value. Like-named read-outs stand apart in the source and are kept apart here.

Legend:
[1] = target: T1, sirtuin 3 (h) (inhibitor effect) (Homo sapiens, UniProt Q9NTG7); assay: Epigenetic enzyme assay, Sirtuins; type: biochemical; settings: read-out: % Inhibition of Control Values
T1 sequence (Q9NTG7 1-399): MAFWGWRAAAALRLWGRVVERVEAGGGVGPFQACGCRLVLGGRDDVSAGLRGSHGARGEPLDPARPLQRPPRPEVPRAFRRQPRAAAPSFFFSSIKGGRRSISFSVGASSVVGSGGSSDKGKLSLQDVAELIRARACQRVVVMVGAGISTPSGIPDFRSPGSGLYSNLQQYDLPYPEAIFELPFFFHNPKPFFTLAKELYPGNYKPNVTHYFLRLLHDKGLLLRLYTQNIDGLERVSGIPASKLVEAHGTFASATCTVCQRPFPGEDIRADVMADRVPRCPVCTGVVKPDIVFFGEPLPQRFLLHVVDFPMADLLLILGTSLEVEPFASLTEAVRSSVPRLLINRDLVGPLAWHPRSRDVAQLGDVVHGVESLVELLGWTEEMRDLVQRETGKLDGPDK

Chemokine CXCR2 (IL-8RB) = target: T2, Chemokine CXCR2 (IL-8RB) (Homo sapiens, UniProt P25025); assay: Chemokine CXCR2 (IL-8RB) radio ligand binding; settings: assay year 2015
T2 construct: expressed in transfected cells; host or cells: CHO-K1 cells
T2 sequence (P25025 1-360): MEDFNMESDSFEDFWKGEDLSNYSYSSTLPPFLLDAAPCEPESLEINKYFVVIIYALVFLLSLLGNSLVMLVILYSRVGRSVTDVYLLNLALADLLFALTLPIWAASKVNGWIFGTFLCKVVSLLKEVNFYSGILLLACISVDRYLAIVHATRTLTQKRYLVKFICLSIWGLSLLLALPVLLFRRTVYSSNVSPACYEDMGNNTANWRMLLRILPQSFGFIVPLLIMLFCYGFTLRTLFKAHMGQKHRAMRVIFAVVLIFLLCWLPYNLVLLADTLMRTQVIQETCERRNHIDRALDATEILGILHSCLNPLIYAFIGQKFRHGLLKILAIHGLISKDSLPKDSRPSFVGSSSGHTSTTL
Procedure: (§1) The in vitro pharmacological studies were conducted by Eurofins PanLab (Taiwan) using the parameters shown in Table 13 with respect to appropriate literature references.

JARID1C (h) = JARID1C (h) (Homo sapiens, UniProt P41229); assay: Epigenetic enzyme assay, Demethylases (KDMs); type: biochemical; settings: read-out: % Inhibition of Control Values
JARID1C (h), sequence (P41229 whole entry): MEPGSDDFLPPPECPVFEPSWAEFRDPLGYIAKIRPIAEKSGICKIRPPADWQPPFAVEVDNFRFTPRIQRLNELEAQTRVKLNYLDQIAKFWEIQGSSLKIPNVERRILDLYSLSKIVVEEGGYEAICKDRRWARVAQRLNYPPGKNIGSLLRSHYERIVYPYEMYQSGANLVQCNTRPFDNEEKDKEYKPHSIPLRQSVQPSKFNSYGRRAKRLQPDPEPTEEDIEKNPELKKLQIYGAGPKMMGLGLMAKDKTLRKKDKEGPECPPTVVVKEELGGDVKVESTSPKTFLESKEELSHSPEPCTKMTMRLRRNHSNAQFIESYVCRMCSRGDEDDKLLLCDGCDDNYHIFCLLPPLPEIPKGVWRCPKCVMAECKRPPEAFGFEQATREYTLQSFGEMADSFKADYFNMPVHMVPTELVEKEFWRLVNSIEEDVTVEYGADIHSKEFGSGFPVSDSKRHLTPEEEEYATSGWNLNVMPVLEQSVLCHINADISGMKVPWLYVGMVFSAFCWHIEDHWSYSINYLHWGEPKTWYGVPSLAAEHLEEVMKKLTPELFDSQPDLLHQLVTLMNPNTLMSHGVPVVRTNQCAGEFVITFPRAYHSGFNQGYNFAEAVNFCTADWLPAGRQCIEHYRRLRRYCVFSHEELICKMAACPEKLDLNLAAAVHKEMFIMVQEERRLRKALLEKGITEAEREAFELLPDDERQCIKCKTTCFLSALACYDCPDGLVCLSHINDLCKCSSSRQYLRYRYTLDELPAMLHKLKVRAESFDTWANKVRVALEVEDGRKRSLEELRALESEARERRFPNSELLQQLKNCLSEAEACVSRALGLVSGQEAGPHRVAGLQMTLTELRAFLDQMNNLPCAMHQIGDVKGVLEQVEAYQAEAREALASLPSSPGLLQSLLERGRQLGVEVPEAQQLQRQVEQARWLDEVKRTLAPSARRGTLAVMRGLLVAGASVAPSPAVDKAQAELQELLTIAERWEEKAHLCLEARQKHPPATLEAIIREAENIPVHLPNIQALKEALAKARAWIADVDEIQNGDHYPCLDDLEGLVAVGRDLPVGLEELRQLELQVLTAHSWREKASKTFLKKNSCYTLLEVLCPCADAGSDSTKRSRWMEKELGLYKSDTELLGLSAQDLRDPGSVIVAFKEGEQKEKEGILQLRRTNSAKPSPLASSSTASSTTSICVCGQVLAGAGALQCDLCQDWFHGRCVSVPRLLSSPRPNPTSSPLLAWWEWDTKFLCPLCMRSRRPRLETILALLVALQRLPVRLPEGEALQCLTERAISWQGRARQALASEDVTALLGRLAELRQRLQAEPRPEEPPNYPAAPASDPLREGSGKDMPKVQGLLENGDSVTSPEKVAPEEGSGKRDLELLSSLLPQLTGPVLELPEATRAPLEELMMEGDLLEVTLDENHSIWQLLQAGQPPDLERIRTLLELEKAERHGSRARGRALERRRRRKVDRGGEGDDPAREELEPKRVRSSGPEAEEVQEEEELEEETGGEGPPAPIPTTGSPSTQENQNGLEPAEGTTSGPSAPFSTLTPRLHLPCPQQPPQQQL

MDA-MB-415 = assay: OncoPanel cell proliferation assay (10-day); type: cell-based, human; settings: for pEC50 / GI50 / pIC50: Homo sapiens, MDA-MB-415, Breast; for pEC50: read-out: Cell Count EC50; for GI50: read-out: Cell Count GI50; for pIC50: read-out: Cell Count IC50
Myeloperoxidase = target: T3, Myeloperoxidase (Homo sapiens, UniProt P05164); assay: Myeloperoxidase; type: biochemical
T3 construct: Human PMN leukocytes; from tissue; host or cells: human PMN leukocytes
T3 sequence (P05164 49-745): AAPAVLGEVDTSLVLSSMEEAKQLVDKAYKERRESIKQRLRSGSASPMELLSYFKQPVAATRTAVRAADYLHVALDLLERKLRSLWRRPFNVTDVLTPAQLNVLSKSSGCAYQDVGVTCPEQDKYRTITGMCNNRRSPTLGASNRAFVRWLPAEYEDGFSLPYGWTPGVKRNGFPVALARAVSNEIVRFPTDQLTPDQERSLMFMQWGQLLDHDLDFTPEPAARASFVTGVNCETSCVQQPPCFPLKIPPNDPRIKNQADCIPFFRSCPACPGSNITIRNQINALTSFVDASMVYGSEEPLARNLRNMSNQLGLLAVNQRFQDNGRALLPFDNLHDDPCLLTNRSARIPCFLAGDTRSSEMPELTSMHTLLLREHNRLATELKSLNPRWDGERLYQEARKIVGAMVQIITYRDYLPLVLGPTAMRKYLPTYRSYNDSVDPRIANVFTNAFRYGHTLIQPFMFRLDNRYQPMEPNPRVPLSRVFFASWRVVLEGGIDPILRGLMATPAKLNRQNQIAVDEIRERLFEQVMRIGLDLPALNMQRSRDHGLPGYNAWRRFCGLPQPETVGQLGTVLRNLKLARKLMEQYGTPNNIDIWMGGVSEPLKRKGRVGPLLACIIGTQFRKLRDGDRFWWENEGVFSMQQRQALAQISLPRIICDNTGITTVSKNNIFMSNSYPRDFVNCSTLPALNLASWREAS
Procedure: as §1

[2] = system: Catechol-O-Methyl Transferase (COMT); assay: Catechol-O-Methyl Transferase (COMT); type: biochemical, Porcine; settings: 10 μM; assay year 2015
Procedure: as §1

IM-9 = assay: OncoPanel cell proliferation assay (10-day); type: cell-based, human; settings: for pEC50 / GI50 / pIC50: Homo sapiens, IM-9, Myeloma; for pEC50: read-out: Cell Count EC50; for GI50: read-out: Cell Count GI50; for pIC50: read-out: Cell Count IC50
JARID1A (h) = JARID1A (h) (Homo sapiens, UniProt P29375); assay: Epigenetic enzyme assay, Demethylases (KDMs); type: biochemical; settings: for inhibition at 10 µM: read-out: % Inhibition of Control Values
JARID1A (h), sequence (P29375 whole entry): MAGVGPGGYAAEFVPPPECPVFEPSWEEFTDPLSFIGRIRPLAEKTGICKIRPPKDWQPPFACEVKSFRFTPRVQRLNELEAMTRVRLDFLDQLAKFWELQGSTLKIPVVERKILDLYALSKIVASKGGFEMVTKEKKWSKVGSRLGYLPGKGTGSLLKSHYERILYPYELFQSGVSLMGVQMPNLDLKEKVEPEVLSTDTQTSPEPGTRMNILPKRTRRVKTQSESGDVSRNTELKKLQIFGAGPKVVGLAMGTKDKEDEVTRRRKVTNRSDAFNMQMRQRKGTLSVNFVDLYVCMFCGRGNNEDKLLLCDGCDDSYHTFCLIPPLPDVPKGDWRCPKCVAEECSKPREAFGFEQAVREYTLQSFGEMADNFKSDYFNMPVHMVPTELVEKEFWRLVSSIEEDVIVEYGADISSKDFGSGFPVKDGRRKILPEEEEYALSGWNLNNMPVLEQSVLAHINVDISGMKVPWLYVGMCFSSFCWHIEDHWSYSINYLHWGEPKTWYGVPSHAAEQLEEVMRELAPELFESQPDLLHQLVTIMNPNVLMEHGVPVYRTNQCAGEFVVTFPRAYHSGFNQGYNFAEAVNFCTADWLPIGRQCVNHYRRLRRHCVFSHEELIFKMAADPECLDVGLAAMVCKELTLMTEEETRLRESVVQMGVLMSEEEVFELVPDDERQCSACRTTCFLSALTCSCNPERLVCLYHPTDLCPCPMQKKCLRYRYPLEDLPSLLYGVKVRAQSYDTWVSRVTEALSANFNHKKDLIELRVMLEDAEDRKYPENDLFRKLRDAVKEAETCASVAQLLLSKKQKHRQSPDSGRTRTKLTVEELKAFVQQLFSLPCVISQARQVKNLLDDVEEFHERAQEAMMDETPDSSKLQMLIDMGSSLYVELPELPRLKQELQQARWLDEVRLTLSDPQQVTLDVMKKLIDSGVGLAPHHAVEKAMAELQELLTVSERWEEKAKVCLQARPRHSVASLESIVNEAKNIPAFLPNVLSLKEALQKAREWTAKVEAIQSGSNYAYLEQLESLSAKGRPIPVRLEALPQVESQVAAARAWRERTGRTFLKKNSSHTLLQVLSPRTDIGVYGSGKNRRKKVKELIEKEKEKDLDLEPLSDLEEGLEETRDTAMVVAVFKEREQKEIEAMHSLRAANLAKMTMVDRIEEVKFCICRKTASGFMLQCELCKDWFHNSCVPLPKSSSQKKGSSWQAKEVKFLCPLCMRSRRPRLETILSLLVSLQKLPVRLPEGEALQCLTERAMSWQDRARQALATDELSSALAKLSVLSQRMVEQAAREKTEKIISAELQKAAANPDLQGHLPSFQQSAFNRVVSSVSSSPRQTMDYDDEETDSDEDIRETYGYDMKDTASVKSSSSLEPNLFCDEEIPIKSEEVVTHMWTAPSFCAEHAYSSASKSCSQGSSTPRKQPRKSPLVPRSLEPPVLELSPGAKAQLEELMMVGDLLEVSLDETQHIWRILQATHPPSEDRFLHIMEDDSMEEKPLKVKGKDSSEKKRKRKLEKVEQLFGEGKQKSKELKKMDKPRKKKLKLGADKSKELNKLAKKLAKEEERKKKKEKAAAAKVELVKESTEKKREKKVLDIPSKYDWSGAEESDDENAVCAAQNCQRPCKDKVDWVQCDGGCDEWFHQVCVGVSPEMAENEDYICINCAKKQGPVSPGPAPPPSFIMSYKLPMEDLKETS

[3] = target: T4, CYP1A (Phenacetin Substrate) (Homo sapiens, UniProt P05177); assay: Cytochrome P450 Inhibition (CYP panel); type: in vitro ADME; settings: read-out: IC50 (estimated)
T4 sequence (P05177 1-516): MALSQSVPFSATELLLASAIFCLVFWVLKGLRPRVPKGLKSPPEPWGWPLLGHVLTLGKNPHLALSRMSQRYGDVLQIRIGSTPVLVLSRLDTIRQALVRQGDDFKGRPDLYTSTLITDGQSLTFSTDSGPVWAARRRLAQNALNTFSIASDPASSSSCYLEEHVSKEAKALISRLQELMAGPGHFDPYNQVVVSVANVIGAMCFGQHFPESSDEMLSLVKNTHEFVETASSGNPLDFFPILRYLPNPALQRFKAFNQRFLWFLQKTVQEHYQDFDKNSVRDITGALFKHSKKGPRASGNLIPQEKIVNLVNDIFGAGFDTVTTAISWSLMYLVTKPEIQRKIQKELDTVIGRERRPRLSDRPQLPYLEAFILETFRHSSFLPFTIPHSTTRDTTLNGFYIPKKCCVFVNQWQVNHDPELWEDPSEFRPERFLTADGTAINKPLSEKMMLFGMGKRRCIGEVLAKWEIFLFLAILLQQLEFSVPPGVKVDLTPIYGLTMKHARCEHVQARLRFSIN

CYP1A = target: T5, CYP1A (Homo sapiens, UniProt P05177); assay: Cytochrome P450 Inhibition (CYP panel); type: in vitro ADME; settings: probe phenacetin
T5 sequence (P05177 1-516): T4 sequence (P05177 1-516)

[4] = assay year 2014, read-out: % Control Response
[5] = assay year 2015, read-out: % Control Response
[6] = human, human liver microsomes, read-out: % inhibition
[7] = CYP1A (phenacetin sub.), Human liver microsomes, read-out: % Inhibition of Control Values

## CC(C)=CCC[C@H](CO)[C@@H]1CC[C@@H](C)c2c1cc(C)c(O)c2O [Compound 1, 7,8,18-trihydroxyserrulat-14-ene]
[1]
  inhibition at 10 µM: -14%
Chemokine CXCR2 (IL-8RB)
  % control response at 10 µM: 12%
JARID1C (h)
  inhibition at 10 µM: 49%
MDA-MB-415; 3.00E+00 microM
  Relative cell count (%) Mean: 1.3%
MDA-MB-415; 3.00E+01 microM
  Relative cell count (%) Mean: 0.2%
MDA-MB-415; 3.01E−01 microM
  Relative cell count (%) Mean: 100.2%
MDA-MB-415; 3.01E−02 microM
  Relative cell count (%) Mean: 93.4%
MDA-MB-415; 3.02E−03 microM
  Relative cell count (%) Mean: 100.0%
MDA-MB-415; 9.49E+00 microM
  Relative cell count (%) Mean: 0.3%
MDA-MB-415; 9.51E−01 microM
  Relative cell count (%) Mean: 62.3%
MDA-MB-415; 9.52E−02 microM
  Relative cell count (%) Mean: 98.1%
MDA-MB-415; 9.53E−03 microM
  Relative cell count (%) Mean: 98.0%
MDA-MB-415; 9.55E−04 microM
  Relative cell count (%) Mean: 90.2%
MDA-MB-415
  pEC50: 5.99
  GI50: 1 µM
  pIC50: 5.99
Myeloperoxidase; 10 μM, assay year 2014
  % Control Response: inhibited the activity
Myeloperoxidase; [4]
  remaining activity at 10 µM: 52%
Myeloperoxidase; [5]
  remaining activity at 10 µM: 27%
[2]
  % Control Response: 0%
IM-9
  pEC50: 6.38
  GI50: 0.42 µM
  pIC50: 6.38
IM-9; IM-9, 3.00E+00 microM
  Relative cell count (%) Mean: 0.1%
IM-9; IM-9, 3.00E+01 microM
  Relative cell count (%) Mean: 0.0%
IM-9; IM-9, 3.01E−01 microM
  Relative cell count (%) Mean: 97.5%
IM-9; IM-9, 3.01E−02 microM
  Relative cell count (%) Mean: 107.3%
IM-9; IM-9, 3.02E−03 microM
  Relative cell count (%) Mean: 102.8%
IM-9; IM-9, 9.49E+00 microM
  Relative cell count (%) Mean: 0.1%
IM-9; IM-9, 9.51E−01 microM
  Relative cell count (%) Mean: 0.0%
IM-9; IM-9, 9.52E−02 microM
  Relative cell count (%) Mean: 97.7%
IM-9; IM-9, 9.53E−03 microM
  Relative cell count (%) Mean: 103.1%
IM-9; IM-9, 9.55E−04 microM
  Relative cell count (%) Mean: 94.9%
JARID1A (h); 10 μM
  % Inhibition of Control Values: significant inhibitory activity
  inhibition at 10 µM: 64%
JARID1A (h); Table 11, inhibition/concentration-response curve, read-out: IC50
  pIC50: 5.02
[3]
  pIC50: > 5.00
CYP1A; [6]
  inhibition at 1 µM: 28%
  inhibition at 10 µM: 63 to 92%
CYP1A; [7]
  inhibition at 1 µM: 28%
  inhibition at 10 µM: 92%

## CC(C)=CCC[C@@H]1C(O)Oc2c(C)cc(O)c3c2[C@H]1CC[C@H]3C (stereo partly drawn) [Compound 2, 5,18-epoxyserrulat-14-en-8,18-diol]
[1]
  inhibition at 10 µM: -8%
Chemokine CXCR2 (IL-8RB)
  % control response at 10 µM: -7%
JARID1C (h)
  inhibition at 10 µM: -13%
MDA-MB-415
  pEC50: 4.94
  GI50: 10.8 µM
  pIC50: 4.94
Myeloperoxidase; [4]
  remaining activity at 10 µM: 5%
Myeloperoxidase; [5]
  remaining activity at 10 µM: 1%
[2]
  % Control Response: −1%
IM-9
  pEC50: 5.41
  GI50: 3.92 µM
  pIC50: 5.41
JARID1A (h); 10 μM
  inhibition at 10 µM: -9%
[3]
  pIC50: > 5.00
CYP1A; [6]
  inhibition at 1 µM: 38%
  inhibition at 10 µM: 63 to 92%
CYP1A; [7]
  inhibition at 1 µM: 38%
  inhibition at 10 µM: 63%

## CC(C)=CCC[C@@H]1COc2c(C)cc(O)c3c2[C@H]1CC[C@H]3C [Compound 3, 5,18-epoxy-8-hydroxyserrulat-14-ene]
[1]
  inhibition at 10 µM: -3%
Chemokine CXCR2 (IL-8RB)
  % control response at 10 µM: 1%
JARID1C (h)
  inhibition at 10 µM: 25%
Myeloperoxidase; [5]
  remaining activity at 10 µM: -7%
[2]
  % Control Response: 3%
JARID1A (h); 10 μM
  inhibition at 10 µM: 3%

## CC(C)=CCC[C@H](C)[C@@H]1CC[C@@H](C)c2c1cc(C)c(O)c2O [Compound 4, 7,8-dihydroxyserrulat-14-ene]
MDA-MB-415
  pEC50: 4.55
  GI50: 27.4 µM
  pIC50: 4.55
IM-9
  pEC50: 5.17
  GI50: 6.71 µM
  pIC50: 5.17
[3]
  pIC50: > 5.00
CYP1A; [6]
  inhibition at 10 µM: 63 to 92%
CYP1A; [7]
  inhibition at 1 µM: 14%
  inhibition at 10 µM: 85%
